Holding throughout (assay type): biochemical
One experiment concerns the target Tyk2 (Homo sapiens (Human), UniProt P29597). The experiment in a line: Enzyme assay (Assay Example^a 1), Tyk2. The following applies: ATP 100 μM.
A further experiment deals with JAK1 (Homo sapiens (Human), UniProt P23458). Kind of experiment: Enzyme assay (Assay Example^a 1), JAK1. The following applies: ATP 100 μM.
In another experiment the target is JAK3 (Homo sapiens (Human), UniProt P52333). Kind of experiment: Enzyme assay (Assay Example^a 1), JAK3.
JAK3, sequence (P52333 whole entry): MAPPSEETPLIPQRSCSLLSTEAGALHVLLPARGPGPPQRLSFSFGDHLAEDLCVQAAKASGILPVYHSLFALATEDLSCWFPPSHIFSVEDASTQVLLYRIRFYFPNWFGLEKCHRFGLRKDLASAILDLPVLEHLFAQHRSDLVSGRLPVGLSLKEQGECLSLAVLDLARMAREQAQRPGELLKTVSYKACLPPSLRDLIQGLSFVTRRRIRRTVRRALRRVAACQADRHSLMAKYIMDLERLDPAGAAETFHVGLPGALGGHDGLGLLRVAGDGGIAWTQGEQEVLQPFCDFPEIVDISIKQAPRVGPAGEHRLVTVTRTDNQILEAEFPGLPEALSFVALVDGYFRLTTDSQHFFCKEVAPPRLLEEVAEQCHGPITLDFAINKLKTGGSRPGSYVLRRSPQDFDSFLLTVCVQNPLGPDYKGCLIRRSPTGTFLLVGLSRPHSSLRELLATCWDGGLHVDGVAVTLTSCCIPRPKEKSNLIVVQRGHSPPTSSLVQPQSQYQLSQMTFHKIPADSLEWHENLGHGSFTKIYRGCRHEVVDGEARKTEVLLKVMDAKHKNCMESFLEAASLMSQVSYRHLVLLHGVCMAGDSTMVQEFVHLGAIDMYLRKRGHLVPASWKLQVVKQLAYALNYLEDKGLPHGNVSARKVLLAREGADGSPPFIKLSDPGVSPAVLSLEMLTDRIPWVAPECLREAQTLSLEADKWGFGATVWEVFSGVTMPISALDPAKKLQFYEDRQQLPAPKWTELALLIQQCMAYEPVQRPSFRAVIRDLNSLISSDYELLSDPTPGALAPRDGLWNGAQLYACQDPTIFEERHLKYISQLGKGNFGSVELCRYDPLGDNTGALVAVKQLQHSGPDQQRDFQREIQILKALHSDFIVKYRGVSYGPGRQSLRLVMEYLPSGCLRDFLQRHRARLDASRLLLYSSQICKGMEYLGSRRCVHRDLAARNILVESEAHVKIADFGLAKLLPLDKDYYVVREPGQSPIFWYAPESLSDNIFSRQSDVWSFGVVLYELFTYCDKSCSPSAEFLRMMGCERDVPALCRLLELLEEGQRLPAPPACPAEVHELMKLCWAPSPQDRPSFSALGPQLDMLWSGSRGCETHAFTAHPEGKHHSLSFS

SMILES strings stand for the structures. Like-named read-outs stand apart in the source and are kept apart here.

Tyk2, sequence (P29597 whole entry): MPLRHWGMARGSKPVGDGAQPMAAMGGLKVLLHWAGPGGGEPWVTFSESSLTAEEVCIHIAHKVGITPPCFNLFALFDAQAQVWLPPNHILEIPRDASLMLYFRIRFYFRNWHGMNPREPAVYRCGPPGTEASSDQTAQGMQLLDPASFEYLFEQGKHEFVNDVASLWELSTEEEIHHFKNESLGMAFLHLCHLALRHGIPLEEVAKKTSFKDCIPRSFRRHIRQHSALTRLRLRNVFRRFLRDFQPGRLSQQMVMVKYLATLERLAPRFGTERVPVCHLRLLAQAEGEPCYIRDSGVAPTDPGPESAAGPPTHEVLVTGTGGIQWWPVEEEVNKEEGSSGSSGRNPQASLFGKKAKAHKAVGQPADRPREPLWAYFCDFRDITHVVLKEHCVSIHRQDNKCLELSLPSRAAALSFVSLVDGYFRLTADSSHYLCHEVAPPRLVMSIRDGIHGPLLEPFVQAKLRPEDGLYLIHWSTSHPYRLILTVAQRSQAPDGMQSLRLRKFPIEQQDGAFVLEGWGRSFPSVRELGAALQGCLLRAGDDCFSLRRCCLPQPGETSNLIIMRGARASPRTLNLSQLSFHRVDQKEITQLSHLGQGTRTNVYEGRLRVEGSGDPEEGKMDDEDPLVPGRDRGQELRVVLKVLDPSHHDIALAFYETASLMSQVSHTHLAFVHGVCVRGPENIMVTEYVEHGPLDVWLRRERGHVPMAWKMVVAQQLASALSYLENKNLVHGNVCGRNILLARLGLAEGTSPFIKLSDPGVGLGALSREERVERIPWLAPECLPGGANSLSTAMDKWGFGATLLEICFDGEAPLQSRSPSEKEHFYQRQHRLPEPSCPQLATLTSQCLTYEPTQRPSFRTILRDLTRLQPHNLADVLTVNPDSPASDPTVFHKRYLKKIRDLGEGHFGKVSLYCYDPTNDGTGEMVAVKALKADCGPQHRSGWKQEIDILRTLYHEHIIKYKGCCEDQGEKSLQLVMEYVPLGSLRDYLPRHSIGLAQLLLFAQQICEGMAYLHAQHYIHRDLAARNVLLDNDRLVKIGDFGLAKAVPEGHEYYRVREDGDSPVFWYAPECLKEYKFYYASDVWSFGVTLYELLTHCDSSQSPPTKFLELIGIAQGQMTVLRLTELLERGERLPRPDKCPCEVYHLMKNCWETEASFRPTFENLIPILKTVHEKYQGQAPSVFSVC

With `OC(CN[C@H]1CC[C@H](c2nnn3cnc4[nH]ccc4c23)CC1)c1ccccc1` (mixture of isomers) [202b, 2-{[trans-4-(7H-pyrrolo[3,2-e][1,2,3]triazolo[1,5-c]pyrimidin-1-yl)cyclohexyl]amino}-1-phenylethanol], on Tyk2 (Table^a 154), the IC50 (usually the midpoint of a concentration-inhibition curve) was determined as 0.26 µM.
As to `O=C(OCc1ccccc1)N1CCCC(c2ncn3cnc4[nH]ccc4c23)C1` (racemic) [compound 3], the results for the IC50 on JAK1 and against JAK3 (ATP 100 μM) were 0.057 µM and 1.4 µM, respectively.
Compound `CC(C)(C)OC(=O)N1CCCC(c2nnn3cnc4[nH]ccc4c23)C1` (racemic) [compound 13] registered an IC50 on Tyk2 (Table^a 154) of more than 1 µM.
On to `c1ccc(CN2CCCC(c3nnn4cnc5[nH]ccc5c34)C2)cc1` (racemic) [compound 16], for which the half-maximal inhibitory concentration (IC50) against JAK1 (Table^a 154) came to 0.28 µM; at JAK3 (ATP 100 μM, Table^a 154), 5.3 µM.
With `c1cncc(CN2CCCC(c3nnn4cnc5[nH]ccc5c34)C2)c1` (racemic) [compound 18], the IC50 at Tyk2 (Table^a 154) was more than 1 µM.
Turning to `O=C(Nc1nncs1)N1CCCC(c2nnn3cnc4[nH]ccc4c23)C1` (racemic) [compound 20], the IC50 against JAK1 (Table^a 154) was 0.019 µM; on Tyk2 (Table^a 154), 0.42 µM.
`FC(F)(F)c1ccc(CN2CCCC(c3nnn4cnc5[nH]ccc5c34)C2)cc1` (racemic) [compound 23]: the IC50 at JAK1 (Table^a 154) was found to be 0.55 µM.
On to `OC(CNC[C@H]1CC[C@H](c2nnn3cnc4[nH]ccc4c23)CC1)c1ccccc1` (mixture of isomers) [compound 186, 2-({[trans-4-(7H-pyrrolo[3,2-e][1,2,3]triazolo[1,5-c]pyrimidin-1-yl)cyclohexyl]methyl}amino)-1-phenylethanol], for which the concentration for half-maximal inhibition (IC50) against Tyk2 (Table^a 154) came to 0.044 µM.
In turn, `O=C(OCc1ccccc1)N1CCC(c2nnn3cnc4[nH]ccc4c23)C1` (racemic) [compound 211, Benzyl 3-(7H-pyrrolo[3,2-e][1,2,3]triazolo[1,5-c]pyrimidin-1-yl)pyrrolidine-1-carboxylate] had an IC50 against JAK1 (Table^a 154) of 0.12 µM.
Regarding `CC(c1ccccc1)N1CCC(c2nnn3cnc4[nH]ccc4c23)CC1` (racemic) [compound 245, 1-[1-(1-phenylethyl)piperidin-4-yl]-7H-pyrrolo[3,2-e][1,2,3]triazolo[1,5-c]pyrimidine], the IC50 on JAK3 (ATP 100 μM) and against Tyk2 was more than 1 µM throughout.
On to `N#Cc1ccc(N[C@H]2CC[C@@H](c3nnn4cnc5[nH]ccc5c34)CC2)cc1` [134a], for which the IC50 on JAK3 is 1 µM.
On the same count and under the same terms, the figure for `N#Cc1ccc(N[C@H]2CC[C@H](c3nnn4cnc5[nH]ccc5c34)CC2)cc1` [134b] is 0.66 µM.
Regarding `Clc1ccc(CN[C@H]2CC[C@@H](c3nnn4cnc5[nH]ccc5c34)CC2)cc1` [197a, cis-N-(4-chlorobenzyl)-4-(7H-pyrrolo[3,2-e][1,2,3]triazolo[1,5-c]pyrimidin-1-yl)cyclohexanamine], the IC50 is 0.016 µM against JAK1 (Table^a 154); more than 1 µM at JAK3 (ATP 100 μM, Table^a 154); 0.15 µM against Tyk2 (Table^a 154).
Consider `Clc1ccc(CN[C@H]2CC[C@H](c3nnn4cnc5[nH]ccc5c34)CC2)cc1` [197b, trans-N-(4-chlorobenzyl)-4-(7H-pyrrolo[3,2-e][1,2,3]triazolo[1,5-c]pyrimidin-1-yl)cyclohexanamine], for which the IC50 was found to be 0.0054 µM against JAK1 (Table^a 154); 0.52 µM against JAK3 (ATP 100 μM, Table^a 154); 0.11 µM against Tyk2 (Table^a 154).
`O[C@H](CN[C@H]1CC[C@H](c2nnn3cnc4[nH]ccc4c23)CC1)c1ccccc1` [203b, (S)-2-{[trans-4-(7H-pyrrolo[3,2-e][1,2,3]triazolo[1,5-c]pyrimidin-1-yl)cyclohexyl]amino}-1-phenylethanol] displayed an IC50 against Tyk2 (Table^a 154) of 0.33 µM.
In the case of `O[C@@H](CN[C@H]1CC[C@H](c2nnn3cnc4[nH]ccc4c23)CC1)c1ccccc1` [204b, (R)-2-{[trans-4-(7H-pyrrolo[3,2-e][1,2,3]triazolo[1,5-c]pyrimidin-1-yl)cyclohexyl]amino)-1-phenylethanol], on Tyk2 (Table^a 154), the IC50 came out at 0.35 µM.
For the compound `CC1CCN(C(=O)CC#N)CC1c1nnn2cnc3[nH]ccc3c12` (centres unmarked) [compound 12], the IC50 at JAK1 (Table^a 154) came to 0.021 µM; against Tyk2 (Table^a 154) it was 0.91 µM.
Turning to `FC(F)(F)CN1CCC(c2nnn3cnc4[nH]ccc4c23)CC1` [compound 25], the concentration for half-maximal inhibition (IC50) against JAK3 amounted to 0.44 µM.
`O=C(Nc1nncs1)N1CCC(c2nnn3cnc4[nH]ccc4c23)CC1` [compound 30]: on JAK3 (ATP 100 μM, Table^a 154), half-maximal inhibition (IC50) required 0.48 µM.
In turn, `Cc1cc(NC(=O)N2CCC(c3nnn4cnc5[nH]ccc5c34)CC2)sn1` [compound 31] gave an IC50 against JAK3 (ATP 100 μM, Table^a 154) of more than 1 µM.
In turn, `N#Cc1cccc(CN2CCC(c3nnn4cnc5[nH]ccc5c34)CC2)c1` [compound 35] yielded an IC50 on JAK3 (ATP 100 μM, Table^a 154) of 0.26 µM.
For the compound `FC(F)(F)c1cccc(CN2CCC(c3nnn4cnc5[nH]ccc5c34)CC2)c1` [compound 39], on JAK3 (ATP 100 μM, Table^a 154), 0.53 µM corresponded to half-maximal inhibition (IC50).
With `FC(F)(F)c1cc(CN2CCC(c3nnn4cnc5[nH]ccc5c34)CC2)cc(C(F)(F)F)c1` [compound 47], the IC50 against JAK1 (Table^a 154) was 0.78 µM; on Tyk2 (Table^a 154), more than 1 µM.
As to `FC(F)(F)c1ccc(CN2CCC(c3nnn4cnc5[nH]ccc5c34)CC2)cn1` [compound 52], half-maximal inhibition at JAK3 (IC50) was put at 0.041 µM.
At JAK3, `Clc1ccc(CN2CCC(c3nnn4cnc5[nH]ccc5c34)CC2)cc1` [compound 54] showed an IC50 of 0.071 µM.
On to `CC(C)(C)OC(=O)N[C@H]1CC[C@H](c2nnn3cnc4[nH]ccc4c23)CC1` [compound 59], for which the half-maximal inhibitory concentration (IC50) against JAK3 (ATP 100 μM, Table^a 154) was more than 1 µM; on Tyk2 (Table^a 154) it was more than 1 µM.
On Tyk2 (Table^a 154), `N[C@H]1CC[C@H](c2nnn3cnc4[nH]ccc4c23)CC1` [compound 61] returned a 50% inhibitory concentration (IC50) of 0.44 µM.
On to `COC[C@H]1CC[C@H](c2nnn3cnc4[nH]ccc4c23)CC1` [compound 62], for which the IC50 against JAK3 (ATP 100 μM, Table^a 154) was 0.47 µM; against Tyk2 (Table^a 154) it was 0.14 µM.
Compound `CO[C@H]1CC[C@H](c2nnn3cnc4[nH]ccc4c23)CC1` [compound 63] gave an IC50 against JAK1 (Table^a 154) of 0.011 µM.
Turning to `c1cc2c(ncn3nnc(C4CC5CCC4C5)c23)[nH]1` (centres unmarked) [compound 65], the IC50 on JAK3 (ATP 100 μM, Table^a 154) came out at 0.15 µM; on Tyk2 (Table^a 154), 0.025 µM.
For `CC(=O)SC[C@H]1CC[C@H](c2nnn3cnc4[nH]ccc4c23)CC1` [compound 71], the IC50 against JAK3 amounted to 0.055 µM.
On JAK3 (ATP 100 μM, Table^a 154), `CC(=O)OC[C@H]1CC[C@H](c2nnn3cnc4[nH]ccc4c23)CC1` [compound 72] had an IC50 of 0.048 µM.
On the same count and under the same terms, for `ClC[C@H]1CC[C@H](c2nnn3cnc4[nH]ccc4c23)CC1` [compound 75] the value was 0.032 µM.
Turning to `O[C@H]1CC[C@H](c2nnn3cnc4[nH]ccc4c23)CC1` [compound 81], at JAK3, half-maximal inhibition (IC50) required 0.64 µM.
In turn, `O[C@H]1CC[C@@H](c2nnn3cnc4[nH]ccc4c23)CC1` [compound 83] gave an IC50 on JAK3 of 0.28 µM.
Compound `O=C(OCc1ccccc1)N1CCC(c2[nH]c(=S)n3cnc4[nH]ccc4c23)CC1` [compound 85] showed an IC50 on JAK3 (ATP 100 μM, Table^a 154) of more than 1 µM.
As to `FC(F)(F)c1ccc(CN2CCC(c3[nH]c(=S)n4cnc5[nH]ccc5c34)CC2)cc1` [compound 86], the IC50 against JAK1 (Table^a 154) was determined as 0.02 µM.
Compound `c1cc2c(ncn3nnc([C@H]4CC[C@H](CN5CCOCC5)CC4)c23)[nH]1` [compound 91] returned an IC50 on JAK3 (ATP 100 μM, Table^a 154) of 0.64 µM.
On the same count and under the same terms, the figure for `N#Cc1ccc(NC[C@H]2CC[C@H](c3nnn4cnc5[nH]ccc5c34)CC2)cc1` [compound 92] is more than 1 µM.
In the case of `N#Cc1ccc(CNC[C@H]2CC[C@H](c3nnn4cnc5[nH]ccc5c34)CC2)cc1` [compound 93], the half-maximal inhibitory concentration (IC50) against JAK3 (ATP 100 μM, Table^a 154) was 0.31 µM.
Turning to `Cc1cc(C#N)ccc1NC[C@H]1CC[C@H](c2nnn3cnc4[nH]ccc4c23)CC1` [compound 103], at JAK3, the IC50 was more than 1 µM.
On to `Fc1ccc(CNC[C@H]2CC[C@H](c3nnn4cnc5[nH]ccc5c34)CC2)cc1C(F)(F)F` [compound 112], for which, at JAK1 (Table^a 154), the IC50 amounted to 0.0049 µM.
`Fc1ccc(NC[C@H]2CC[C@H](c3nnn4cnc5[nH]ccc5c34)CC2)c(C(F)(F)F)c1` [compound 117]: the IC50 is 0.039 µM against JAK1 (Table^a 154) and more than 1 µM against JAK3.
On to `N#Cc1ccc(NC2CCC(c3nnn4cnc5[nH]ccc5c34)CC2)cc1` (centres unmarked) [compound 121], for which, at JAK3, the IC50 was found to be 0.46 µM.
`c1cc2c(ncn3nnc(C4CCC(N5CCOCC5)CC4)c23)[nH]1` (centres unmarked) [compound 124] yielded an IC50 at JAK3 (ATP 100 μM, Table^a 154) of more than 1 µM.
The same measure, in the same setting: for `c1cc2c(ncn3nnc(C4CCC(NCCN5CCOCC5)CC4)c23)[nH]1` (centres unmarked) [compound 126] the value was more than 1 µM.
In the case of `Fc1ccccc1CN1CCC(c2nnn3cnc4[nH]ccc4c23)CC1` [compound 142], the midpoint of inhibition at JAK3 (ATP 100 μM, Table^a 154), the IC50, lay at 0.36 µM.
With `c1coc(CN2CCC(c3nnn4cnc5[nH]ccc5c34)CC2)c1` [compound 146], 0.31 µM corresponded to half-maximal inhibition on JAK3 (ATP 100 μM, Table^a 154) (IC50).
For `c1cc(CN2CCC(c3nnn4cnc5[nH]ccc5c34)CC2)[nH]n1` [compound 151], the IC50 against JAK3 (ATP 100 μM, Table^a 154) came out at 0.63 µM.
On JAK3 (ATP 100 μM, Table^a 154), `c1cc2c(ncn3nnc(C4CCN(Cc5csnn5)CC4)c23)[nH]1` [compound 152] came in with an IC50 of 0.032 µM.
The compound `Brc1ncc(CN2CCC(c3nnn4cnc5[nH]ccc5c34)CC2)s1` [compound 153] registered an IC50 against JAK3 (ATP 100 μM, Table^a 154) of 0.015 µM.
Consider `Fc1ccc(CN2CCC(c3nnn4cnc5[nH]ccc5c34)CC2)cc1C(F)(F)F` [compound 154], for which the IC50 against JAK3 (ATP 100 μM, Table^a 154) was 0.62 µM.
As to `c1ccc2sc(CN3CCC(c4nnn5cnc6[nH]ccc6c45)CC3)nc2c1` [compound 232, 2-{[4-(7H-pyrrolo[3,2-e][1,2,3]triazolo[1,5-c]pyrimidin-1-yl)piperidin-1-yl]methyl}benzo[d]thiazole], on JAK3 (ATP 100 μM), the 50% inhibitory concentration (IC50) is more than 1 µM.
In the case of `O[C@@H](CNC[C@H]1CC[C@H](c2nnn3cnc4[nH]ccc4c23)CC1)c1ccccc1` [compound 276, (R)-2-({[trans-4-(7H-pyrrolo[3,2-e][1,2,3]triazolo[1,5-c]pyrimidin-1-yl)cyclohexyl]methyl}amino)-1-phenylethanol], at Tyk2, the IC50 was 0.032 µM.
On the same count and under the same terms, for `O[C@H](CNC[C@H]1CC[C@H](c2nnn3cnc4[nH]ccc4c23)CC1)c1ccccc1` [compound 277, (S)-2-({[trans-4-(7H-pyrrolo[3,2-e][1,2,3]triazolo[1,5-c]pyrimidin-1-yl)cyclohexyl]methyl}amino)-1-phenylethanol] the value was 0.05 µM.
As for `O=C1NOC[C@H]1NC[C@H]1CC[C@H](c2nnn3cnc4[nH]ccc4c23)CC1` [compound 288, (R)-4-({[trans-4-(7H-pyrrolo[3,2-e][1,2,3]triazolo[1,5-c]pyrimidin-1-yl)cyclohexyl]methyl}amino)isoxazolidin-3-one], the IC50 against JAK1 came out at 0.046 µM; against Tyk2, 0.37 µM.
